# Key:
# [1] = Antiproliferative activity against human Hep2 cells; type: functional; conditions: HEp-2, read-out: ED50 (the source's name)
# NCI-H520 = assay: Antiproliferative activity against human NCI-H520 cells; type: functional, cell-based
# A549 = assay: Antiproliferative activity against human A549 cells; type: functional, cell-based
# P388 [2] = assay: Antiproliferative activity against mouse P388 cells; type: functional, cell-based
# MCF7 = assay: Antiproliferative activity against human MCF7 cells; type: functional, cell-based
# [3] = Cmax in mouse at 40 mg/kg, po; type: ADME, organism-based; design: dose 40 mg/kg, route oral; conditions: in vivo
# [4] = Half life in dog at 100 mg/kg, po; type: ADME, organism-based, Canis lupus familiaris; design: dose 100 mg/kg, route oral; conditions: in vivo
# [5] = Cmax in dog at 100 mg/kg, po; type: ADME, organism-based, Canis lupus familiaris; design: dose 100 mg/kg, route oral; conditions: in vivo
# [6] = Half life in mouse at 100 mg/kg, po; type: ADME, organism-based; design: dose 100 mg/kg, route oral; conditions: in vivo
# [7] = Cmax in mouse at 100 mg/kg, po; type: ADME, organism-based; design: dose 100 mg/kg, route oral; conditions: in vivo
# [8] = Oral bioavailability in mouse at 100 mg/kg; type: ADME, organism-based; conditions: in vivo
# [9] = Oral bioavailability in dog at 100 mg/kg; type: ADME, organism-based, Canis lupus familiaris; conditions: in vivo
# P388 [10] = assay: Antitumor activity against mouse P388 cells allografted in DBA/2 mouse assessed as survival; type: functional
# Rattus norvegicus = species: Rattus norvegicus; assay: Gastroprotective activity in rat assessed as inhibition of HCl/ethyl alcohol-induced lesions; type: functional
# [11] = Antiinflammatory activity in mouse macrophages assessed as LPS-induced nitric oxide production; type: functional, cell-based; conditions: Macrophage
# Mus musculus = species: Mus musculus; assay: Gastroprotective activity in mouse assessed as inhibition of water-immersion-induced lesions; type: functional
IC50 [11] [mg/L],SMILES,EC50 [1] [mg/L],inhibition (INH) (Rattus norvegicus) [%],inhibition (INH) (Mus musculus) [%],further results
–,C=C1C(=O)O[C@@H]2C[C@@H](C)[C@@H]3CCC(=O)[C@@]3(C)[C@@H](O)[C@H]12,3.83,–,–,–
–,C=C1CCC[C@]2(C)C[C@H]3OC(=O)[C@@H](CN(CC)CC)[C@H]3C[C@@H]12,–,–,–,IC50 (NCI-H520): 0.9 µM; IC50 (A549): 0.8 µM; IC50 (P388 [2]): 0.3 µM; IC50 (MCF7): 0.8 µM
–,C/C1=C\CC[C@@]2(C)O[C@@H]2[C@H]2OC(=O)[C@@H](CN(C)C)[C@@H]2CC1,–,–,–,Cmax [3]: 0.2 µM; half-life [4]: 1.9 h; Cmax [5]: 61 µM; half-life [6]: 0.63 h; Cmax [7]: 25 µM; bioavailability [8]: 70%; bioavailability [9]: 70%
–,C[C@@H]1C[C@H]2OC(=O)C(CN(C)C)[C@H]2[C@H](O)[C@]2(C)C(=O)C=C[C@@H]12 (stereo partly specified),0.604,–,–,Survival (P388 [10]): 13 days
–,C[C@@H]1C[C@H]2OC(=O)C(CN(C)C)[C@H]2[C@H](O)[C@]2(C)C(=O)CC[C@@H]12 (stereo partly specified),6.04,–,–,–
2.8,C/C1=C\[C@H]2OC(=O)[C@@H](CN3CCC[C@H]3C(=O)O)[C@@H]2CC/C(C)=C/CC1,–,59.8,57,–
2.8,C=C1CC[C@H]2C(=C)CC[C@@H]3[C@H](OC(=O)[C@H]3CN3CCC[C@H]3C(=O)O)[C@@H]12,–,87,19,–
16,C=C1CC[C@H]2C(=C)CC[C@@H]3[C@H](OC(=O)[C@H]3CN[C@@H](CC(N)=O)C(=O)O)[C@@H]12,–,68.1,4.7,–
1.2,C=C1C(=O)O[C@@H]2/C=C(\C)CC/C=C(\C)CC[C@@H]12 [COSTUNOLIDE],–,93.2,14.3,–
1.2,C=C1CC[C@H]2C(=C)CC[C@H]3C(=C)C(=O)O[C@@H]3[C@@H]12 [DEHYDROCOSTUSLACTONE],–,96.2,19,–
–,C=C1C(=O)O[C@@H]2C[C@@H](C)[C@@H]3C=CC(=O)[C@@]3(C)[C@@H](O)[C@H]12 [HELENALIN],0.083,–,–,Survival (P388 [10]): 13.4 days
–,C=C1C(=O)O[C@@H]2C[C@@]3(C)CCCC(=C)[C@@H]3C[C@H]12 [ISOALANTOLACTONE],–,–,–,IC50 (NCI-H520): 0.9 µM; IC50 (A549): 0.6 µM; IC50 (P388 [2]): 0.4 µM; IC50 (MCF7): 0.6 µM

# — ChEMBL document CHEMBL3217665, “Amino-derivatives of the sesquiterpene lactone class of natural products as prodrugs” (Medchemcomm, 2013)
